Experimental data: patent US7858790B2, “Modulators of muscarinic receptors” (Vertex Pharmaceuticals Incorporated, priority 2006, dated 2010)

How the values were obtained:
M1 muscarinic receptor = target: T1, M1 muscarinic receptor (Homo sapiens, UniProt P11229); experiment: Functional mobilization of intracellular calcium (FLIPR) in CHO cells expressing M1 muscarinic receptor; type: cell-based; conditions: for Emax: CHO, 100% efficacy is the maximum response obtained with the Carbachol control; for M1 Activity: CHO cells expressing M1, calcium mobilization
T1 construct: expressed in transfected cells; host or cells: CHO (M1-CHO recombinant cell line)
T1 sequence (P11229 1-460): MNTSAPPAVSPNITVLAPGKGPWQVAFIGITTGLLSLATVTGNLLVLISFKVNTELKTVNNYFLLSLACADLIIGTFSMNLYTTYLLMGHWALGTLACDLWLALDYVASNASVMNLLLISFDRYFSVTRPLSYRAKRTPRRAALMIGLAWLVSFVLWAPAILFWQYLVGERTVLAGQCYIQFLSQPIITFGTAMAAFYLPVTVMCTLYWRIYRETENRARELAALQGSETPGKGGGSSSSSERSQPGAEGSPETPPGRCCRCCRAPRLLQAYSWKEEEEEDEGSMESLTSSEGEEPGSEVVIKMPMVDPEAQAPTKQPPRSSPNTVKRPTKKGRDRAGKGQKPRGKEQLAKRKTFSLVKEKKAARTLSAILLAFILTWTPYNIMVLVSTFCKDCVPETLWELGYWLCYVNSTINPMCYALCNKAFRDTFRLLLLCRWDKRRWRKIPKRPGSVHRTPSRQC
Experimental: (§1) VI. Assays for Detecting and Measuring Inhibition Properties of Compounds Functional Mobilization of Intracellular Calcium to Determine Muscarinic Receptor Activity:
(§2) CHO cells expressing muscarinic receptors (M1 to M5) are grown as monolayers in tissue culture flasks at 37° C. in a humidified atmosphere containing 5% CO2 and passaged every 3-5 days. The growth media is Dulbecco's modified eagles medium (DMEM, Gibco Cat# 12430-054), containing 25 mM Hepes and supplemented with Fetal Bovine Serum (Hyclone, cat# SH30071.03), 0.1 mM of MEM non-essential amino acids (GIBCO, Cat# 11140-050), 1 mM MEM Sodium Pyruvate (GIBCO Cat# 11360-070) and 100 units/ml of Penicillin G and 100 μg/ml of Streptomycin (GIBCO Cat# 15140-122). The recombinant muscarinic receptor cell lines are grown under antibiotic pressure with media containing 25 μg/ml zeocin and 500 μg/ml G418 (M1-CHO), 4 μg/ml puromycin, 50 μg/ml zeocin and 2.5 μg/ml blasticidin (M2 and M4-CHO) or 50 μg/ml zeocin and 4 μg/ml puromycin (M3 and M5-CHO).
(§3) Cells are harvested at 80-90% confluence using Versene (GIBCO Cat# 15040-066), collected by centrifugation and seeded 18-24 hours prior to running the calcium assay at a density of 5,000-10,000 cells/well in […], clear-bottomed 384-well plates (BD Biocoat, poly-D-lysine, Cat#356663). The day of the experiment, the cells are washed with a plate washer (Bioteck Instruments, ELX 405) using bath buffer (140-mM NaCl, 4.5-mM KCl, 2-mM CaCl2, 1-mM MgCl2, 10-mM Hepes-Na, 10-mM Glucose, pH 7.4, with NaOH) containing 1 mM Probenecid. Next, the calcium dye Fluo-3 (25 μl/well of Fluo-3 μM at 4 μM, Molecular Probes F-1241, in Bath 1 buffer containing 1 mM Probenecid) is added to the 25 μl of Bath 1 remaining in each well after the plate wash and the dye is loaded at 37° C. in the tissue culture incubator for 60-90 min. The fluorescent dye is removed using the plate washer with Bath 1 containing 1 mM Probenecid, leaving 25 μl/well of this solution after the wash. Alternatively, cells can be loaded with the calcium indicator from Molecular Devices (Calcium 3 Assay Reagents, Cat # R7181) adding 5 μl of a 5× solution dye in Bath 1 containing 1 mM Probenecid (10 ml per dye flask cat# R7182 to generate a solution 20×) to 20 μl of the same buffer. After loading for 60 min, the experiment can be run without having to remove the dye.
(§4) Compounds are prepared at a 2× fold concentration in a 96-well plate (round bottom, Costar Corning cat# 3656), by reconstituting the pre-spotted compounds in bath 1 containing 1 mM probenecid. The final concentration DMSO is 0.5%, and the amount of DMSO is normalized across the assay plate. To determine an agonist action of the compounds on muscarinic receptors, the reconstituted compounds are added (25 μl compound/well) to the cell assay plate (containing 25 μl/well) using the multi-channel robotic system of the FLIPR 3 Instrument (Molecular Devices, Sunnyvale, Calif.). To determine a functional inhibitory-action of the compounds on muscarinic receptors, the reconstituted compounds are added (25 μl compound/well) to the assay plate and pre-incubated for 15 min prior to adding 25 μl of Carbachol at 3× the EC80 for each muscarinic subtype. Alternatively, the compounds can be co-applied simultaneously with the agonist. In both assay modes, the fluorescence is recorded for 60 sec (excitation wavelength is […] and emission wavelength 540 nm) using the FLIPR 3 instrument.
(§5) The potency, efficacy and selectivity of the muscarinic compounds were evaluated by screening the compound activity across the whole family (M1 to M5 cells). Compounds were also screened for activity on other proteins such as other GPCRs and ion channels to determine selectivity on M4 receptors.
(§6) Examples of activities and efficacies of the muscarinic compounds of formulae (I, Ia, and Ib) on modulating M1 and M4 receptors are shown below in Table 8. […]

M4 muscarinic receptor = target: T2, M4 muscarinic receptor (Homo sapiens, UniProt P08173); experiment: Functional mobilization of intracellular calcium (FLIPR) in CHO cells expressing M4 muscarinic receptor; type: cell-based; conditions: for Emax: CHO, 100% efficacy is the maximum response obtained with the Carbachol control; for M4 Activity: CHO cells expressing M4, calcium mobilization
T2 construct: expressed in transfected cells; host or cells: CHO (M4-CHO recombinant cell line)
T2 sequence (P08173 1-479): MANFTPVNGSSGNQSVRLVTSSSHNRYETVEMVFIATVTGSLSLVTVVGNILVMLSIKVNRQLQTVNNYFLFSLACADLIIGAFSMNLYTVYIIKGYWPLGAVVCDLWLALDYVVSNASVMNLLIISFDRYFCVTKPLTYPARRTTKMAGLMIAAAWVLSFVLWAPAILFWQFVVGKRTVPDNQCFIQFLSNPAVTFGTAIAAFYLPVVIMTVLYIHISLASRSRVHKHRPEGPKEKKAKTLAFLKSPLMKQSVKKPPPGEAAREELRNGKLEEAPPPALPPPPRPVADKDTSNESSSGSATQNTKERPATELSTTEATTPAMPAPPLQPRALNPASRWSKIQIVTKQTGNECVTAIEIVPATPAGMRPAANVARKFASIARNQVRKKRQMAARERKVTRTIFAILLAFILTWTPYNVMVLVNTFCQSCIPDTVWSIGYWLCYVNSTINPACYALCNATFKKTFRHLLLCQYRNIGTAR
Experimental: as §1, §2, §3, §4, §5, §6

Row | SMILES | Emax (M1 muscarinic receptor) [%] | Emax (M4 muscarinic receptor) [%] | M1 Activity (M1 muscarinic receptor) | M4 Activity (M4 muscarinic receptor)
1 | CCC(CC)NC(=O)C1=CC2(CCN(C3C[C@@H]4CC[C@@H]3C4)CC2)c2ccccc21 (stereo in doubt) [Compound No. 14, 1′-(bicyclo[2.2.1]heptan-2-yl)-N-(pentan-3-yl)spiro[indene-1,4′-piperidine]-3-carboxamide] | < 25 | 25 to 100 | – | –
2 | CNC(=O)C1=CC2(CCN(C3C[C@@H]4CC[C@@H]3C4)CC2)c2ccccc21 (stereo in doubt) [Compound No. 38, 1′-(bicyclo[2.2.1]heptan-2-yl)-N-methylspiro[indene-1,4′-piperidine]-3-carboxamide] | 25 to 100 | 25 to 100 | + (activity was measured to be greater than 10.0 μM) | +++ (activity was measured to be less than 2.0 μM)
3 | O=C(O)C1=CC2(CCN(C3C[C@@H]4CC[C@@H]3C4)CC2)c2ccccc21 (stereo in doubt) [Compound No. 48, 1′-(bicyclo[2.2.1]heptan-2-yl)spiro[indene-1,4′-piperidine]-3-carboxylic acid] | 25 to 100 | 25 to 100 | + (activity was measured to be greater than 10.0 μM) | + (activity was measured to be greater than 10.0 μM)
4 | CCC(CC)NC(=O)C1=CC2(CCN(C3CCCCCC3)CC2)c2ccccc21 [Compound No. 3] | < 25 | 25 to 100 | + (activity was measured to be greater than 10.0 μM) | ++ (activity was measured to be from 2.0 μM to 10.0 μM)
5 | CNC(=O)C1=CC2(CCN(CC3CCCCC3)CC2)c2ccccc21 [Compound No. 6] | 25 to 100 | 25 to 100 | + (activity was measured to be greater than 10.0 μM) | +++ (activity was measured to be less than 2.0 μM)
6 | CC(C)(C)CCN1CCC2(C=C(C(=O)O)c3ccccc32)CC1 [Compound No. 20, 1′-(3,3-dimethylbutyl)spiro[indene-1,4′-piperidine]-3-carboxylic acid] | < 25 | < 25 | + (activity was measured to be greater than 10.0 μM) | +++ (activity was measured to be less than 2.0 μM)
7 | CNC(=O)C1=CC2(CCN(CCC(C)(C)C)CC2)c2ccccc21 [Compound No. 27, 1′-(3,3-dimethylbutyl)-N-methylspiro[indene-1,4′-piperidine]-3-carboxamide] | 25 to 100 | 25 to 100 | +++ (activity was measured to be less than 2.0 μM) | +++ (activity was measured to be less than 2.0 μM)
8 | CC(C)(C)CCN1CCC2(C=C(C(=O)N3CCCCC3)c3ccccc32)CC1 [Compound No. 37] | 25 to 100 | 25 to 100 | +++ (activity was measured to be less than 2.0 μM) | +++ (activity was measured to be less than 2.0 μM)
9 | CCC(CC)NC(=O)C1=CC2(CCN(CC3CCCCC3)CC2)c2ccccc21 [Compound No. 68, 1′-(cyclohexylmethyl)-N-(pentan-3-yl)spiro[indene-1,4′-piperidine]-3-carboxamide] | < 25 | 25 to 100 | – | –
10 | CCOC(=O)N1CCC(N2CCC3(CC=C(C(=O)N(C)C)c4ccccc43)CC2)CC1 [compound 4, ethyl 4-(4-(dimethylcarbamoyl)-2H-spiro[naphthalene-1,4′-piperidine]-1′-yl)piperidine-1-carboxylate] | 25 to 100 | 25 to 100 | +++ (activity was measured to be less than 2.0 μM) | +++ (activity was measured to be less than 2.0 μM)
11 | CCOC(=O)N1C2CCC1CC(N1CCC3(CC=C(C(=O)N4CCCC4)c4ccccc43)CC1)C2 (centres unmarked) [compound 5] | 25 to 100 | 25 to 100 | +++ (activity was measured to be less than 2.0 μM) | +++ (activity was measured to be less than 2.0 μM)
12 | CCC(CC)NC(=O)C1=CC2(CCN(C3CCNCC3)CC2)c2ccccc21 [compound 7] | < 25 | < 25 | + (activity was measured to be greater than 10.0 μM) | + (activity was measured to be greater than 10.0 μM)
13 | CNC(=O)C1=CC2(CCN(CCC3CCOCC3)CC2)c2ccccc21 [compound 8] | 25 to 100 | < 25 | + (activity was measured to be greater than 10.0 μM) | + (activity was measured to be greater than 10.0 μM)
14 | CNC(=O)C1=CC2(CCN(CCC3CCSCC3)CC2)c2ccccc21 [compound 9] | 25 to 100 | < 25 | + (activity was measured to be greater than 10.0 μM) | + (activity was measured to be greater than 10.0 μM)
15 | CCC(CC)NC(=O)C1=CC2(CCN(C3CCN(C(C)=O)CC3)CC2)c2ccccc21 [compound 10] | < 25 | < 25 | + (activity was measured to be greater than 10.0 μM) | + (activity was measured to be greater than 10.0 μM)
16 | CC(C)(C)CCN1CCC2(CC=C(C(=O)N3CCCC3)c3ccccc32)CC1 [compound 11] | 25 to 100 | < 25 | ++ (activity was measured to be from 2.0 μM to 10.0 μM) | ++ (activity was measured to be from 2.0 μM to 10.0 μM)
17 | CCOC(=O)N1C2CCC1CC(N1CCC3(C=C(C(=O)O)c4ccccc43)CC1)C2 (centres unmarked) [compound 13] | 25 to 100 | 25 to 100 | +++ (activity was measured to be less than 2.0 μM) | +++ (activity was measured to be less than 2.0 μM)
18 | CNC(=O)C1=CC2(CCN(CCC(C)C)CC2)c2ccccc21 [compound 15] | 25 to 100 | 25 to 100 | + (activity was measured to be greater than 10.0 μM) | +++ (activity was measured to be less than 2.0 μM)
